For orientation: pEC50 means the EC50 on a negative log10 scale, so that one unit is a factor of ten.

pEC50: −log10 of the molar value. Where only a bound is given, the exact number is not on record here.

These results are taken from patent US12565488B2, “Inhibitors of influenza virus replication” (COCRYSTAL PHARMA, INC., priority 2018, dated 2026).

One assay concerns Influenza type A (strain A/PR/8/34, ATCC VR-95). Put plainly: Influenza antiviral assay: inhibition of virus-induced cytopathic effects (CPE) in MDCK cells, XTT dye reduction. The format is cell-based. Particulars: Influenza A (H1N1) replication in MDCK cells, CPE reduction by XTT at 4 days post-infection; read-out: Influenza H1N1 affinity, EC50.
Take `O=C(NCC1c2ccccc2COc2ccccc21)c1c(O)c(=O)ccn1CC1c2ccccc2COc2ccccc21` (centres unmarked) [Compound 102]: the pEC50 was less than 4.00. In the case of `O=C(NCC1c2ccccc2COc2ccccc21)c1c(O)c(=O)ccn1CC1c2ccccc2COc2ccccc21` (centres unmarked) [Compound 106], the pEC50 is less than 4.00. Turning to `O=C(NCC1c2ccccc2COc2ccccc21)c1c(O)c(=O)ccn1CC1c2ccccc2COc2ccccc21` (centres unmarked) [Compound 107], the pEC50 was less than 4.00. Take `O=C(NCC1c2ccccc2COc2ccccc21)c1c(O)c(=O)ccn1CC1c2ccccc2COc2ccccc21` (centres unmarked) [Compound 108]: the pEC50 was 5.00 to 6.00.

The same assay, now with this note: Influenza A virus, H1N1 / PR/8, MDCK, 96 h, Influenza A (H1N1) replication in MDCK cells, CPE reduction by XTT at 4 days post-infection; read-out: Influenza H1N1 affinity, EC50.
As for `CNC(=O)c1c(O)c(=O)ccn1NC1c2ccccc2COc2cc(Cl)c(Cl)cc21` (centres unmarked) [Compound 76, 1-((2,3-dichloro-6,11-dihydrodibenzo[b,e]oxepin-11-yl)amino)-3-hydroxy-N-methyl-4-oxo-1,4-dihydropyridine-2-carboxamide], the pEC50 is less than 4.00. Consider `O=C(O)c1c(O)c(=O)ccn1NC1c2ccccc2CSc2cc(Cl)c(Cl)cc21` (centres unmarked) [Compound 77], for which the pEC50 is 4.00 to 5.00.

With `CNC(=O)c1c(O)c(=O)ccn1NC1c2ccccc2CSc2cc(F)c(F)cc21` (centres unmarked) [Compound 78], the pEC50 was 5.00 to 6.00. Same read-out and setting: as for `CNC(=O)c1c(O)c(=O)ccn1NC1c2ccccc2CSc2cc(Cl)c(Cl)cc21` (centres unmarked) [Compound 79, 1-((2,3-dichloro-6,11-dihydrodibenzo[b,e]thiepin-11-yl)amino)-3-hydroxy-N-methyl-4-oxo-1,4-dihydropyridine-2-carboxamide], the figure is less than 4.00.

With `O=C(O)c1c(O)c(=O)ccn1NC1c2ccc(F)c(F)c2COc2c1ccc(F)c2F` (centres unmarked) [Compound 80], the pEC50 was 5.00 to 6.00.

Take `O=C(O)c1c(O)c(=O)ccn1NC(c1ccccc1)c1ccc2ccccc2c1` (centres unmarked) [Compound 82]: the pEC50 was 4.00 to 5.00. Same read-out and setting: then `O=C(O)c1c(O)c(=O)ccn1NC1c2ccc(C(F)(F)F)cc2COc2ccccc21` (centres unmarked) [Compound 86], with less than 4.00.

As for `O=C(O)c1c(O)c(=O)ccn1NC1c2ccccc2CSc2c1ccc(Cl)c2Cl` (centres unmarked) [Compound 87], the pEC50 was 5.00 to 6.00. Consider `O=C(O)c1c(O)c(=O)ccn1NC1c2ccccc2CSc2cc(F)c(F)cc21` (centres unmarked) [Compound 88], for which the pEC50 is 4.00 to 5.00. Same read-out and setting: then `O=C(O)c1c(O)c(=O)ccn1NC1c2ccc(F)c(F)c2CSc2c1ccc(F)c2F` (centres unmarked) [Compound 93], with 5.00 to 6.00.

For the molecule `O=C(O)c1c(O)c(=O)ccn1NC1c2ccccc2SCc2c1ccc(Cl)c2Cl` (centres unmarked) [Compound 94], the pEC50 was 6.00 to 7.00. For the molecule `O=C(O)c1c(O)c(=O)ccn1NC1c2cc(F)c(F)cc2CSc2ccccc21` (centres unmarked) [Compound 95], the pEC50 was 5.00 to 6.00.

As for `O=C(O)c1c(O)c(=O)ccn1NC1c2ccccc2SCc2c1ccc(F)c2Br` (centres unmarked) [Compound 96], the pEC50 is 6.00 to 7.00. With `O=C(O)c1c(O)c(=O)ccn1NC1c2ccccc2SCc2c1ccc(Br)c2Cl` (centres unmarked) [Compound 97], the pEC50 is 5.00 to 6.00.

On to `O=C(O)c1c(O)c(=O)ccn1NC1c2ccccc2OCc2c1ccc(Cl)c2Cl` (centres unmarked) [Compound 99], for which the pEC50 was 5.00 to 6.00. In the case of `O=C(O)c1c(O)c(=O)ccn1NC(c1ccc2ccccc2c1)c1ccc2ccccc2c1` [Compound 100], the pEC50 is less than 4.00. In the case of `CNC(=O)c1cn(NC2c3ccccc3COc3ccccc32)c(C(=O)NC)c(O)c1=O` (centres unmarked) [Compound 103], the pEC50 was less than 4.00. `CCOC(=O)c1cn(NC2c3ccccc3COc3ccccc32)c(C(=O)OCC)c(O)c1=O` (centres unmarked) [Compound 104]: the pEC50 is less than 4.00.

For the molecule `O=C(O)c1c(O)c(=O)ccn1NC(c1ccc(F)c(F)c1)c1ccc(F)c(F)c1` [Compound 105], the pEC50 was less than 4.00.

For the molecule `O=C(O)c1cn(NC2c3ccccc3COc3ccccc32)c(C(=O)O)c(O)c1=O` (centres unmarked) [Compound 109], the pEC50 is 4.00 to 5.00. `O=C(O)c1c(O)c(=O)ccn1NC1c2ccc(C(F)(F)F)cc2COc2cc(C(F)(F)F)ccc21` (centres unmarked) [Compound 110]: the pEC50 is less than 4.00. Consider `O=C(O)c1c(O)c(=O)ccn1NC(c1ccccc1)c1cccc2ccccc12` (centres unmarked) [Compound 112], for which the pEC50 is 4.00 to 5.00.

Regarding `CC(C)c1ccc2c(c1)C(Nn1ccc(=O)c(O)c1C(=O)O)c1ccc(F)c(F)c1CS2` (centres unmarked) [Compound 113], the pEC50 is less than 4.00.

Take `O=C(O)c1c(O)c(=O)ccn1NC1c2ccc(-c3ccccc3)cc2SCc2c1ccc(F)c2F` (centres unmarked) [Compound 114]: the pEC50 was 4.00 to 5.00. For `COc1ccc2c(c1)C(Nn1ccc(=O)c(O)c1C(=O)O)c1ccccc1CS2` (centres unmarked) [Compound 115], the pEC50 was less than 4.00. Regarding `O=C(O)c1c(O)c(=O)ccn1NC1c2cc(OC(F)(F)F)ccc2SCc2c1ccc(F)c2F` (centres unmarked) [Compound 116], the pEC50 is 4.00 to 5.00. On to `O=C(O)c1c(O)c(=O)ccn1NC1c2cc(Cl)c(Cl)cc2CSc2ccccc21` (centres unmarked) [Compound 117], for which the pEC50 was 4.00 to 5.00. With `O=C(O)c1c(O)c(=O)ccn1CC1c2ccccc2SCc2c1ccc(F)c2F` (centres unmarked) [Compound 118], the pEC50 is less than 4.00. Regarding `O=C(O)c1cn(NC2c3ccccc3SCc3c2ccc(F)c3F)cc(O)c1=O` (centres unmarked) [Compound 120], the pEC50 was 5.00 to 6.00. On to `O=C(O)c1c(O)c(=O)ccn1NC1c2ccc(F)c(F)c2CSc2c(-c3ccccc3)cccc21` (centres unmarked) [Compound 121], for which the pEC50 was less than 4.00.

For `O=C(O)c1c(O)c(=O)ccn1NC1c2ccc(F)c(F)c2CSc2c(-c3ccc(F)cc3)cccc21` (centres unmarked) [Compound 122], the pEC50 was less than 4.00. For the molecule `O=C(O)c1c(O)c(=O)ccn1NC1c2ccc(-c3ccc(F)cc3)cc2SCc2c1ccc(F)c2F` (centres unmarked) [Compound 123], the pEC50 is 4.00 to 5.00. Consider `O=C(O)c1c(O)c(=O)ccn1NC1c2ccccc2S(=O)(=O)Cc2c1ccc(F)c2F` (centres unmarked) [Compound 126], for which the pEC50 was 4.00 to 5.00. Still for that read-out and setting: then `NC(=O)c1c(O)c(=O)ccn1NC1c2ccccc2SCc2c1ccc(F)c2F` (centres unmarked) [Compound 127], with 5.00 to 6.00; and `O=C(O)c1c(O)c(=O)ccn1NC1c2ccccc2SCc2c1cccc2N1CCCC1=O` (centres unmarked) [Compound 128], with 5.00 to 6.00; and `O=C(NO)c1c(O)c(=O)ccn1NC1c2ccccc2SCc2c1ccc(F)c2F` (centres unmarked) [Compound 129], with 5.00 to 6.00.

With `O=C(NOCc1ccccc1)c1c(O)c(=O)ccn1NC1c2ccccc2SCc2c1ccc(F)c2F` (centres unmarked) [Compound 130, N-(benzyloxy)-1-((7,8-difluoro-6,11-dihydrodibenzo[b,e]thiepin-11-yl)amino)-3-hydroxy-4-oxo-1,4-dihydropyridine-2-carboxamide], the pEC50 is 5.00 to 6.00.
